Data published in patent US20260356804A1, “SODIUM CHANNEL BLOCKING COMPOUNDS, DERIVATIVES THEREOF, AND METHODS OF THEIR USE” (LATIGO BIOTHERAPEUTICS, INC., priority 2022, published 2026).
Read-outs that look alike come from different tables or passages of the source. Each block holds one compound with its values, some of them ahead of it.

Biological target: T1, human Nav1.8/b3 (Homo sapiens, UniProt Q9Y5Y9)
T1 construct: expressed in transfected cells; host or cells: CHO
Assay: Compound Profiling Human NaV1.8/β3 Cell Line—SyncroPatch384PE Assay (automated patch clamp, stably transfected CHO cells)
Format: cell-based
Conditions: Nav1.8/b3 CHO cells

[1] = P1 (IC50, resting state block), P1 measurement, resting state block, holding potential −120 mV, second set of compounds
[2] = P2 (IC50, inactivated state block), P2 measurement, inactivated state block, inactivation step −35 mV 10 sec, second set of compounds
[3] = P1 (IC50, resting state block), P1 measurement, resting state block, holding potential −120 mV, third set of compounds
[4] = P2 (IC50, inactivated state block), P2 measurement, inactivated state block, inactivation step −35 mV 10 sec, third set of compounds
[5] = P1 (IC50, resting state block), P1 measurement, resting state block, holding potential −120 mV, fourth set of compounds
[6] = P2 (IC50, inactivated state block), P2 measurement, inactivated state block, inactivation step −35 mV 10 sec, fourth set of compounds
[7] = P1 measurement, resting state block, holding potential −120 mV, third set of compounds, read-out: P1 (IC50, resting state block)
[8] = P2 measurement, inactivated state block, inactivation step −35 mV 10 sec, third set of compounds, read-out: P2 (IC50, inactivated state block)
[9] = P1 (IC50, resting state block), P1 measurement, resting state block, holding potential −120 mV, first set of compounds
[10] = P2 (IC50, inactivated state block), P2 measurement, inactivated state block, inactivation step −35 mV 10 sec, first set of compounds

T1 sequence (Q9Y5Y9 whole entry): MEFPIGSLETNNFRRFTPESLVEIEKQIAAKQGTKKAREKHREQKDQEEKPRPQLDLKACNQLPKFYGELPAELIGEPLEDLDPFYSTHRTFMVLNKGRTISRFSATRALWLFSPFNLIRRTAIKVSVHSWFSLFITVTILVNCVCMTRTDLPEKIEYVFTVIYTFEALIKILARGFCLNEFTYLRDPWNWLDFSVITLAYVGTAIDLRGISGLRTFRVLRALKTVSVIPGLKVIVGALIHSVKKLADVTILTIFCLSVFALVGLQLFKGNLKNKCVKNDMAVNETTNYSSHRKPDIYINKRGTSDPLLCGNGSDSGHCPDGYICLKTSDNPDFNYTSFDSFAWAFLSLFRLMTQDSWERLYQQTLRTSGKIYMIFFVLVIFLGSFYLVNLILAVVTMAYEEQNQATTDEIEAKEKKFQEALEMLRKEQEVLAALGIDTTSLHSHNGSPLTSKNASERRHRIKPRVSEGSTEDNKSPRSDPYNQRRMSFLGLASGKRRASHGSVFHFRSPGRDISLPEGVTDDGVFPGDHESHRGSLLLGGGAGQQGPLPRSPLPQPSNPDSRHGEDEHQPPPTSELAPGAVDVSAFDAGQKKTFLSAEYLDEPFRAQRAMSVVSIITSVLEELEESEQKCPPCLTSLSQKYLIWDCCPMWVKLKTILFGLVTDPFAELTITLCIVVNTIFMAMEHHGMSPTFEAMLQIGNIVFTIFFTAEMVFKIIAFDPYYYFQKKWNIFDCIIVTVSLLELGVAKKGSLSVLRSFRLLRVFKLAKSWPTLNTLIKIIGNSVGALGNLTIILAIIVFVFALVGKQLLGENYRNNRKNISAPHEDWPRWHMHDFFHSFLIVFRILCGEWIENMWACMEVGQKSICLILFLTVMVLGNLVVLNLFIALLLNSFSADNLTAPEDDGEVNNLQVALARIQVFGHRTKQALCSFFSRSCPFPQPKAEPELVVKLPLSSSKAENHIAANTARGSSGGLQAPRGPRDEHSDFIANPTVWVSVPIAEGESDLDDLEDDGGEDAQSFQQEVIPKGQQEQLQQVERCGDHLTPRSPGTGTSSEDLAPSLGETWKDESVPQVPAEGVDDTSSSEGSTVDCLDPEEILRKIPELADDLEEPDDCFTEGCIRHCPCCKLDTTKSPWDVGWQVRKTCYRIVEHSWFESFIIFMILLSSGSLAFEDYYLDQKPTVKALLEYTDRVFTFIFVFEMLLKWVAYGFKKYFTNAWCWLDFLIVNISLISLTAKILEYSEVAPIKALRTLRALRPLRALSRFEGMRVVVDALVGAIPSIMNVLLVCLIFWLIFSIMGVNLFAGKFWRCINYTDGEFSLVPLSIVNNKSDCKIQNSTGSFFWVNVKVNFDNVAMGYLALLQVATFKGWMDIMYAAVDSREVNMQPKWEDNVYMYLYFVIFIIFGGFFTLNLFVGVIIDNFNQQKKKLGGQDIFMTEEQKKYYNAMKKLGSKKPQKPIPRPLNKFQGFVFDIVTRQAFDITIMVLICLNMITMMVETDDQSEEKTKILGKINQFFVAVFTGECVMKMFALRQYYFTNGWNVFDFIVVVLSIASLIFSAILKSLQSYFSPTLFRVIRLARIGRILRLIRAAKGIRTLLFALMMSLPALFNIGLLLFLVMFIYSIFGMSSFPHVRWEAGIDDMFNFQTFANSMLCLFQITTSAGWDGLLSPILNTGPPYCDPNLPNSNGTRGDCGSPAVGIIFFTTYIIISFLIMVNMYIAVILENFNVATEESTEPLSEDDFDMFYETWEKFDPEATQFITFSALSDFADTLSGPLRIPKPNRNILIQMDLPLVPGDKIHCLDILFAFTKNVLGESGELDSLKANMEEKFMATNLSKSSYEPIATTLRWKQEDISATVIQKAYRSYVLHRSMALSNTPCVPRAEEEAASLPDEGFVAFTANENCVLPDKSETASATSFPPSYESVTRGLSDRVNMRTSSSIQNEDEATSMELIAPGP
T1 sequence (Q9NY72 23-215 partner): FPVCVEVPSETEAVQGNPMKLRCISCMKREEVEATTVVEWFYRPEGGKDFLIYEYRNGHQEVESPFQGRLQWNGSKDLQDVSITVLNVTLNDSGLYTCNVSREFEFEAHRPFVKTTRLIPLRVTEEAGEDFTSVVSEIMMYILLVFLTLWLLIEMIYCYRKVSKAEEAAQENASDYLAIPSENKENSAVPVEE

IC50 [1]: < 5 nM | IC50 [2]: < 5 nM
Structure (SMILES): Cc1nc(F)ccc1Oc1cc(C(F)(F)F)c(Cl)cc1C(=O)Nc1cccc([S@@](C)(=O)=NC(=O)CO)c1 [Example 2B, (R)-5-chloro-2-((6-fluoro-2-methylpyridin-3-yl)oxy)-N-(3-(N-(2-hydroxyacetyl)-S-methylsulfonimidoyl)phenyl)-4-(trifluoromethyl)benzamide]

IC50 [1]: 5 to 50 nM | IC50 [2]: 5 to 50 nM
Structure (SMILES): Cc1nc(F)ccc1Oc1cc(C(F)(F)F)ccc1C(=O)Nc1cccc([S@@](C)(=O)=NC(=O)CN)c1 [Example 14B, (R)-2-((6-fluoro-2-methylpyridin-3-yl)oxy)-N-(3-(N-glycyl-S-methylsulfonimidoyl)phenyl)-4-(trifluoromethyl)benzamide]

IC50 [5]: < 5 nM | IC50 [6]: < 5 nM
Structure (SMILES): Cc1nc(F)ccc1Oc1ncc(C(F)(F)F)c(C)c1C(=O)Nc1cccc([S@@](C)(=O)=NC(=O)[C@H]2CCOC2)c1 [Example 15D, 2-((6-fluoro-2-methylpyridin-3-yl)oxy)-4-methyl-N-(3-((R)—S-methyl-N—((S)-tetrahydrofuran-3-carbonyl)sulfonimidoyl)phenyl)-5-(trifluoromethyl)nicotinamide]

IC50 [7]: 5 to 50 nM | IC50 [8]: 5 to 50 nM
Structure (SMILES): Cc1nc(F)ccc1Oc1cnc(C(F)(F)F)c(C)c1C(=O)Nc1cccc([S@](C)(=N)=O)c1 [Example 44C, (R)-5-((6-fluoro-2-methylpyridin-3-yl)oxy)-3-methyl-N-(3-(S-methylsulfonimidoyl)phenyl)-2-(trifluoromethyl)isonicotinamide]

IC50 [1]: < 5 nM | IC50 [2]: < 5 nM
Structure (SMILES): Cc1nc(F)ccc1Oc1ccc(C(F)(F)F)c(F)c1C(=O)Nc1cccc([S@@](C)(=O)=NC(=O)[C@@H](C)N)c1 [Example 15B, N-(3-((R)—N-(D-alanyl)-S-methylsulfonimidoyl)phenyl)-2-fluoro-6-((6-fluoro-2-methylpyridin-3-yl)oxy)-3-(trifluoromethyl)benzamide]

IC50 [3]: > 200 nM | IC50 [4]: > 200 nM
Structure (SMILES): COc1cc(C#N)ccc1Oc1ncc(-c2ccc(C(F)F)cc2)c(C)c1C(=O)Nc1ccnc([S@@](C)(=N)=O)c1 [Example 16C, (S)-2-(4-cyano-2-methoxyphenoxy)-5-(4-(difluoromethyl)phenyl)-4-methyl-N-(2-(S-methylsulfonimidoyl)pyridin-4-yl)nicotinamide]

IC50 [1]: < 5 nM | IC50 [2]: < 5 nM
Structure (SMILES): Cc1nc(F)ccc1Oc1ccc(C(F)(F)F)c(F)c1C(=O)Nc1cccc([S@@](C)(=O)=NC(=O)[C@H](C)O)c1 [Example 18B, 2-fluoro-6-((6-fluoro-2-methylpyridin-3-yl)oxy)-N-(3-((R)—N—((S)-2-hydroxypropanoyl)-S-methylsulfonimidoyl)phenyl)-3-(trifluoromethyl)benzamide]

IC50 [1]: < 5 nM | IC50 [2]: < 5 nM
Structure (SMILES): Cc1nc(F)ccc1Oc1cc(C(F)(F)F)c(Cl)cc1C(=O)Nc1cccc([S@@](C)(=O)=NC(=O)C2(N)CCC2)c1 [Example 6B, (R)—N-(3-(N-(1-aminocyclobutane-1-carbonyl)-S-methylsulfonimidoyl)phenyl)-5-chloro-2-((6-fluoro-2-methylpyridin-3-yl)oxy)-4-(trifluoromethyl)benzamide]

IC50 [7]: > 200 nM | IC50 [8]: > 200 nM
Structure (SMILES): Cc1nc(F)ccc1Oc1c(C2CC2)ncc(F)c1C(=O)Nc1cccc([S@](C)(=N)=O)c1 [Example 37C, (R)-2-cyclopropyl-5-fluoro-3-((6-fluoro-2-methylpyridin-3-yl)oxy)-N-(3-(S-methylsulfonimidoyl)phenyl)isonicotinamide]

IC50 [3]: 5 to 50 nM | IC50 [4]: 5 to 50 nM
Structure (SMILES): Cc1nc(F)ccc1Oc1ncc(I)c(C)c1C(=O)Nc1cccc([S@](C)(=N)=O)c1 [Example 122C]

IC50 [9]: < 5 nM | IC50 [10]: < 5 nM
Structure (SMILES): Cc1nc(F)ccc1Oc1cc(C(F)(F)F)c(Cl)c(C)c1C(=O)Nc1cccc(C(N)=O)c1 [Example 61A]

IC50 [3]: < 5 nM | IC50 [4]: < 5 nM
Structure (SMILES): Cc1nc(F)ccc1Oc1ncc(C(F)(F)F)c(C)c1C(=O)Nc1cccc(S(N)(=O)=O)c1 [Example 8C, 2-((6-fluoro-2-methylpyridin-3-yl)oxy)-4-methyl-N-(3-sulfamoylphenyl)-5-(trifluoromethyl)nicotinamide]

IC50 [3]: > 200 nM | IC50 [4]: > 200 nM
Structure (SMILES): COc1cc(C#N)ccc1Oc1cc(C(F)(F)F)nnc1C(=O)Nc1cccc(S(C)(=N)=O)c1 (stereo not drawn) [Example 34C, 4-(4-cyano-2-methoxyphenoxy)-N-(3-(S-methylsulfonimidoyl)phenyl)-6-(trifluoromethyl)pyridazine-3-carboxamide]

IC50 [9]: > 200 nM | IC50 [10]: > 200 nM
Structure (SMILES): Cc1nc(F)ccc1Oc1cc(C(F)(F)F)c(Cl)cc1C(=O)NC12CC(C(N)=O)(C1)C2 [Example 63A]

IC50 [3]: 50 to 100 nM | IC50 [4]: 50 to 100 nM
Structure (SMILES): Cc1nc(F)ccc1Oc1ncc(C2CC2)c(C)c1C(=O)Nc1cccc([S@](C)(=N)=O)c1 [Example 12C, (R)-5-cyclopropyl-2-((6-fluoro-2-methylpyridin-3-yl)oxy)-4-methyl-N-(3-(S-methylsulfonimidoyl)phenyl)nicotinamide]

Further lines, the compound ahead of its results:

Structure (SMILES): Cc1nc(F)ccc1Oc1cc(C(F)(F)F)c(Cl)cc1C(=O)Nc1cccc([S@@](C)(=O)=NC(=O)[C@H](C)O)c1 [Example 3B, 5-chloro-2-((6-fluoro-2-methylpyridin-3-yl)oxy)-N-(3-((R)—N—((S)-2-hydroxypropanoyl)-S-methylsulfonimidoyl)phenyl)-4-(trifluoromethyl)benzamide]
IC50 [1]: < 5 nM | IC50 [2]: < 5 nM

Structure (SMILES): Cc1nc(F)ccc1Oc1ncc(C(F)(F)F)c(C)c1C(=O)Nc1cccc([S@@](C)(=O)=NCC(C)(C)N)c1 [Example 90C]
IC50 [3]: < 5 nM | IC50 [4]: < 5 nM

Structure (SMILES): Cc1nc(F)ccc1Oc1ccc(C(F)(F)F)c(C)c1C(=O)Nc1cccc([S@@](C)(=O)=NC(=O)[C@@H](C)O)c1 [Example 28B]
IC50 [1]: < 5 nM | IC50 [2]: < 5 nM

Structure (SMILES): Cc1nc(F)ccc1Oc1ncc(C(F)(F)F)c(C)c1C(=O)Nc1cccc([S@@](C)(=O)=NC(=O)[C@@H]2CCCN2)c1 [Example 22D, N-(3-((R)—N-(L-prolyl)-S-methylsulfonimidoyl)phenyl)-2-((6-fluoro-2-methylpyridin-3-yl)oxy)-4-methyl-5-(trifluoromethyl)nicotinamide]
IC50 [5]: < 5 nM | IC50 [6]: < 5 nM

Structure (SMILES): Cc1nc(F)ccc1Oc1ncc(C(F)(F)F)c(C)c1C(=O)Nc1cccc([S@@](C)(=O)=NC(=O)[C@@H]2CCCO2)c1 [Example 7D, 2-((6-fluoro-2-methylpyridin-3-yl)oxy)-4-methyl-N-(3-((R)—S-methyl-N—((S)-tetrahydrofuran-2-carbonyl)sulfonimidoyl)phenyl)-5-(trifluoromethyl)nicotinamide]
IC50 [5]: < 5 nM | IC50 [6]: < 5 nM

Structure (SMILES): Cc1nc(F)ccc1Oc1nnc(-c2ccc3c(c2)OCCO3)c(C)c1C(=O)Nc1cccc([S@](C)(=N)=O)c1 [Example 7C, (R)-6-(2,3-dihydrobenzo[b][1,4]dioxin-6-yl)-3-((6-fluoro-2-methylpyridin-3-yl)oxy)-5-methyl-N-(3-(S-methylsulfonimidoyl)phenyl)pyridazine-4-carboxamide]
IC50 [3]: < 5 nM | IC50 [4]: < 5 nM

Structure (SMILES): [2H]C([2H])([2H])c1nc(F)ccc1Oc1cc(C(F)(F)F)c(Cl)cc1C(=O)Nc1ccnc([S@](C)(=N)=O)c1 [Example 13A, (R)-5-chloro-2-((6-fluoro-2-(methyl-d3)pyridin-3-yl)oxy)-N-(2-(S-methylsulfonimidoyl)pyridin-4-yl)-4-(trifluoromethyl)benzamide]
IC50 (P1 measurement, resting state block, holding potential −120 mV, first set of compounds, read-out: P1 (IC50, resting state block)): < 5 nM | IC50 (P2 measurement, inactivated state block, inactivation step −35 mV 10 sec, first set of compounds, read-out: P2 (IC50, inactivated state block)): < 5 nM

Structure (SMILES): Cc1nc(F)ccc1Oc1cc(C(F)(F)F)c(Cl)cc1C(=O)Nc1ccnc([S@](C)(=N)=O)c1 (single isomer, unassigned) [Example 6A]
IC50 [9]: < 5 nM | IC50 [10]: < 5 nM

Structure (SMILES): Cc1nc(F)ccc1Oc1nnc(C(F)(F)F)c(C)c1C(=O)Nc1cccc([S@@](C)(=O)=NC(=O)[C@@H]2CCCN2)c1 [Example 26D, N-(3-((R)—N-(L-prolyl)-S-methylsulfonimidoyl)phenyl)-3-((6-fluoro-2-methylpyridin-3-yl)oxy)-5-methyl-6-(trifluoromethyl)pyridazine-4-carboxamide]
IC50 [5]: < 5 nM | IC50 [6]: < 5 nM

Structure (SMILES): Cc1nc(F)ccc1Oc1ccc(C(F)(F)F)c(C)c1C(=O)Nc1cccc([S@@](C)(=O)=NC(=O)[C@@H]2CCCN2)c1 [Example 22B]
IC50 [1]: < 5 nM | IC50 [2]: < 5 nM

Structure (SMILES): Cc1nc(F)ccc1Oc1ccc(C(F)(F)F)c(C)c1C(=O)Nc1cccc([S@](C)(=N)=O)c1 [Example 3A, (R)-6-((6-fluoro-2-methylpyridin-3-yl)oxy)-2-methyl-N-(3-(S-methylsulfonimidoyl)phenyl)-3-(trifluoromethyl)benzamide]
IC50 [9]: < 5 nM | IC50 [10]: < 5 nM

Structure (SMILES): Cc1nc(F)ccc1Oc1nnc(C(F)(F)F)c(C)c1C(=O)Nc1cccc([S@@](C)(=O)=NC(=O)CN2CC(F)(F)C2)c1 [Example 28D, (R)—N-(3-(N-(2-(3,3-difluoroazetidin-1-yl)acetyl)-S-methylsulfonimidoyl)phenyl)-3-((6-fluoro-2-methylpyridin-3-yl)oxy)-5-methyl-6-(trifluoromethyl)pyridazine-4-carboxamide]
IC50 [5]: < 5 nM | IC50 [6]: < 5 nM
